In PubChem BioAssay (NCI):
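Tested at 5 concentrations; 48 h exposure; 96-well plates; endpoints linearly interpolated, else capped at highest concentration. GI50 is the concentration that inhibits growth by half. The concentration for full growth arrest is given as TGI.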

Experiments:
Test in all cases: DTP human tumour cell line panel, 48 h
NCI-H226 lung = tested on: NCI-H226 lung
NCI-H460 lung = tested on: NCI-H460 lung
U251 CNS = tested on: U251 CNS
MDA-MB-435 = tested on: MDA-MB-435
COLO 205 colon = tested on: COLO 205 colon
T-47D breast = tested on: T-47D breast
NCI-H23 lung = tested on: NCI-H23 lung
SK-MEL-5 melanoma = tested on: SK-MEL-5 melanoma
NCI/ADR-RES ovarian = tested on: NCI/ADR-RES ovarian
HOP-62 NSCLC = tested on: HOP-62 NSCLC
SNB-75 CNS = tested on: SNB-75 CNS
MALME-3M melanoma = tested on: MALME-3M melanoma
KM12 colon = tested on: KM12 colon
TK-10 renal = tested on: TK-10 renal
CAKI-1 renal = tested on: CAKI-1 renal
M14 melanoma = tested on: M14 melanoma
A549 NSCLC = tested on: A549 NSCLC
OVCAR-3 ovarian = tested on: OVCAR-3 ovarian
OVCAR-4 ovarian = tested on: OVCAR-4 ovarian
SF-268 CNS = tested on: SF-268 CNS
EKVX NSCLC = tested on: EKVX NSCLC
A498 renal = tested on: A498 renal
NCI-H522 lung = tested on: NCI-H522 lung
SF-295 CNS = tested on: SF-295 CNS
LOX IMVI melanoma = tested on: LOX IMVI melanoma
RXF 393 renal = tested on: RXF 393 renal
SK-OV-3 ovarian = tested on: SK-OV-3 ovarian
SK-MEL-28 melanoma = tested on: SK-MEL-28 melanoma
SK-MEL-2 melanoma = tested on: SK-MEL-2 melanoma
MDA-MB-231 breast = tested on: MDA-MB-231 breast
HCT-116 colon = tested on: HCT-116 colon
SNB-19 CNS = tested on: SNB-19 CNS
SN12C renal = tested on: SN12C renal
IGROV1 ovarian = tested on: IGROV1 ovarian
HT29 colon = tested on: HT29 colon
UACC-62 melanoma = tested on: UACC-62 melanoma
DU-145 prostate = tested on: DU-145 prostate
SW-620 colon = tested on: SW-620 colon
HCC-2998 colon = tested on: HCC-2998 colon
786-0 renal = tested on: 786-0 renal
UO-31 renal = tested on: UO-31 renal
UACC-257 melanoma = tested on: UACC-257 melanoma
OVCAR-8 ovarian = tested on: OVCAR-8 ovarian
BT-549 breast = tested on: BT-549 breast
HS 578T breast = tested on: HS 578T breast
MCF7 breast = tested on: MCF7 breast
K-562 leukemia = tested on: K-562 leukemia
PC-3 prostate = tested on: PC-3 prostate
SF-539 CNS = tested on: SF-539 CNS
ACHN renal = tested on: ACHN renal
CCRF-CEM leukemia = tested on: CCRF-CEM leukemia
HOP-92 NSCLC = tested on: HOP-92 NSCLC

For `N#CC1(Nc2ccc(Br)cc2)CCCC1`, the GI50 (NCI-H226 lung) was greater than 100000 nM, the TGI (NCI-H226 lung) was greater than 100000 nM and the GI50 (NCI-H460 lung) was 1990 nM. For the same compound, the TGI (NCI-H460 lung) was greater than 100 µM, the GI50 (U251 CNS) was 44.5 µM and the TGI (U251 CNS) was greater than 100000 nM. It also gave a GI50 (MDA-MB-435) of 3780 nM, a TGI (MDA-MB-435) greater than 100 µM and a GI50 (COLO 205 colon) greater than 100 µM. For the same compound, the TGI (COLO 205 colon) was greater than 100 µM, the GI50 (T-47D breast) was 9.39 µM and the TGI (T-47D breast) was greater than 100 µM. The GI50 (NCI-H23 lung) was greater than 100000 nM, the TGI (NCI-H23 lung) was greater than 100 µM and the GI50 (SK-MEL-5 melanoma) was 3050 nM. The TGI (SK-MEL-5 melanoma) was greater than 100000 nM, the GI50 (NCI/ADR-RES ovarian) was 9.2 µM and the TGI (NCI/ADR-RES ovarian) was greater than 100 µM. The GI50 (HOP-62 NSCLC) was greater than 100000 nM, the TGI (HOP-62 NSCLC) was greater than 100 µM and the GI50 (SNB-75 CNS) was greater than 100 µM. The TGI (SNB-75 CNS) was greater than 100 µM, the GI50 (MALME-3M melanoma) was 42.6 µM and the TGI (MALME-3M melanoma) was greater than 100 µM. The GI50 (KM12 colon) was 1860 nM, the TGI (KM12 colon) was greater than 100 µM and the GI50 (TK-10 renal) was greater than 100000 nM. The TGI (TK-10 renal) was greater than 100000 nM, the GI50 (CAKI-1 renal) was 529 nM and the TGI (CAKI-1 renal) was greater than 100 µM. The GI50 (M14 melanoma) was 1200 nM, the TGI (M14 melanoma) was greater than 100 µM and the GI50 (A549 NSCLC) was 8.15 µM. The TGI (A549 NSCLC) was greater than 100000 nM, the GI50 (OVCAR-3 ovarian) was 96.4 µM and the TGI (OVCAR-3 ovarian) was greater than 100000 nM. The GI50 (OVCAR-4 ovarian) was greater than 100000 nM, the TGI (OVCAR-4 ovarian) was greater than 100 µM and the GI50 (SF-268 CNS) was greater than 100000 nM. The TGI (SF-268 CNS) was greater than 100000 nM, the GI50 (EKVX NSCLC) was 7.27 µM and the TGI (EKVX NSCLC) was greater than 100000 nM. For the same compound, the GI50 (A498 renal) was greater than 100000 nM, the TGI (A498 renal) was greater than 100000 nM and the GI50 (NCI-H522 lung) was greater than 100000 nM. For the same compound, the TGI (NCI-H522 lung) was greater than 100 µM, the GI50 (SF-295 CNS) was 2300 nM and the TGI (SF-295 CNS) was greater than 100 µM. It also gave a GI50 (LOX IMVI melanoma) of 543 nM, a TGI (LOX IMVI melanoma) greater than 100000 nM and a GI50 (RXF 393 renal) greater than 100000 nM. For the same compound, the TGI (RXF 393 renal) was greater than 100000 nM, the GI50 (SK-OV-3 ovarian) was greater than 100000 nM and the TGI (SK-OV-3 ovarian) was greater than 100000 nM. It also gave a GI50 (SK-MEL-28 melanoma) greater than 100000 nM, a TGI (SK-MEL-28 melanoma) greater than 100000 nM and a GI50 (SK-MEL-2 melanoma) greater than 100000 nM. It also gave a TGI (SK-MEL-2 melanoma) greater than 100000 nM, a GI50 (MDA-MB-231 breast) of 3.16 µM and a TGI (MDA-MB-231 breast) greater than 100 µM. For the same compound, the GI50 (HCT-116 colon) was greater than 100000 nM, the TGI (HCT-116 colon) was greater than 100000 nM and the GI50 (SNB-19 CNS) was greater than 100 µM. The TGI (SNB-19 CNS) was greater than 100 µM, the GI50 (SN12C renal) was 12.6 µM and the TGI (SN12C renal) was greater than 100 µM. The GI50 (IGROV1 ovarian) was 75.4 µM, the TGI (IGROV1 ovarian) was greater than 100000 nM and the GI50 (HT29 colon) was greater than 100000 nM. The TGI (HT29 colon) was greater than 100 µM, the GI50 (UACC-62 melanoma) was 427 nM and the TGI (UACC-62 melanoma) was greater than 100000 nM. For the same compound, the GI50 (DU-145 prostate) was greater than 100000 nM, the TGI (DU-145 prostate) was greater than 100 µM and the GI50 (SW-620 colon) was 3220 nM. The TGI (SW-620 colon) was greater than 100 µM, the GI50 (HCC-2998 colon) was 8.3 µM and the TGI (HCC-2998 colon) was greater than 100 µM. For the same compound, the GI50 (786-0 renal) was 11.3 µM, the TGI (786-0 renal) was greater than 100 µM and the GI50 (UO-31 renal) was 4690 nM. It also gave a TGI (UO-31 renal) greater than 100000 nM, a GI50 (UACC-257 melanoma) of 31.4 µM and a TGI (UACC-257 melanoma) greater than 100000 nM. The GI50 (OVCAR-8 ovarian) was 26.5 µM, the TGI (OVCAR-8 ovarian) was greater than 100 µM and the GI50 (BT-549 breast) was 22.2 µM. The TGI (BT-549 breast) was greater than 100000 nM, the GI50 (HS 578T breast) was greater than 100 µM and the TGI (HS 578T breast) was greater than 100 µM. The GI50 (MCF7 breast) was 9.98 µM and the TGI (MCF7 breast) was greater than 100 µM.
With `C=CCN1C(=O)c2cccc3c(N4CCOCC4)ccc(c23)C1=O` the GI50 (NCI-H226 lung) was 167 nM, the TGI (NCI-H226 lung) was 1750 nM and the GI50 (NCI-H460 lung) was 272 nM. It also gave a TGI (NCI-H460 lung) of 12.7 µM, a GI50 (U251 CNS) of 0.0592 µM and a TGI (U251 CNS) of 606 nM. It also gave a GI50 (MDA-MB-435) of 65.9 nM, a TGI (MDA-MB-435) of 22.2 µM and a GI50 (T-47D breast) of 0.0148 µM. For the same compound, the TGI (T-47D breast) was 11.5 µM, the GI50 (NCI-H23 lung) was 126 nM and the TGI (NCI-H23 lung) was greater than 100 µM. For the same compound, the GI50 (SK-MEL-5 melanoma) was 27.4 nM, the TGI (SK-MEL-5 melanoma) was 127 nM and the GI50 (HOP-62 NSCLC) was 101 nM. For the same compound, the TGI (HOP-62 NSCLC) was greater than 100 µM, the TGI (SNB-75 CNS) was 40.6 µM and the GI50 (K-562 leukemia) was 202 nM. The TGI (K-562 leukemia) was greater than 100 µM, the GI50 (KM12 colon) was 131 nM and the TGI (KM12 colon) was 60.9 µM. For the same compound, the GI50 (TK-10 renal) was 62.3 nM, the TGI (TK-10 renal) was 791 nM and the GI50 (PC-3 prostate) was 128 nM. The TGI (PC-3 prostate) was 748 nM, the GI50 (M14 melanoma) was 42.9 nM and the TGI (M14 melanoma) was greater than 100 µM. For the same compound, the GI50 (SF-539 CNS) was 29.3 nM, the TGI (SF-539 CNS) was 376 nM and the GI50 (A549 NSCLC) was 0.102 µM. The TGI (A549 NSCLC) was 595 nM, the GI50 (OVCAR-3 ovarian) was 0.0118 µM and the TGI (OVCAR-3 ovarian) was 142 nM. The GI50 (OVCAR-4 ovarian) was 310 nM, the TGI (OVCAR-4 ovarian) was greater than 100 µM and the GI50 (SF-268 CNS) was 104 nM. For the same compound, the TGI (SF-268 CNS) was 548 nM, the GI50 (EKVX NSCLC) was 0.0405 µM and the TGI (EKVX NSCLC) was 979 nM. The GI50 (A498 renal) was 13.8 nM, the TGI (A498 renal) was 42.1 nM and the GI50 (NCI-H522 lung) was 206 nM. The TGI (NCI-H522 lung) was 12.3 µM, the GI50 (LOX IMVI melanoma) was 23 nM and the TGI (LOX IMVI melanoma) was 159 nM. The GI50 (RXF 393 renal) was 16.2 nM, the TGI (RXF 393 renal) was 128 nM and the GI50 (SK-OV-3 ovarian) was 49.8 nM. For the same compound, the TGI (SK-OV-3 ovarian) was 667 nM, the GI50 (SK-MEL-28 melanoma) was 25.4 nM and the TGI (SK-MEL-28 melanoma) was 492 nM. For the same compound, the GI50 (SK-MEL-2 melanoma) was 146 nM, the TGI (SK-MEL-2 melanoma) was 675 nM and the GI50 (ACHN renal) was 113 nM. The TGI (ACHN renal) was greater than 100 µM, the GI50 (HCT-116 colon) was 96.1 nM and the TGI (HCT-116 colon) was 428 nM. The GI50 (SN12C renal) was 0.0796 µM, the TGI (SN12C renal) was greater than 100 µM and the GI50 (IGROV1 ovarian) was 0.0114 µM. For the same compound, the TGI (IGROV1 ovarian) was 91.5 nM, the GI50 (HT29 colon) was 65 nM and the TGI (HT29 colon) was 11.1 µM. For the same compound, the GI50 (UACC-62 melanoma) was 188 nM, the TGI (UACC-62 melanoma) was 613 nM and the GI50 (DU-145 prostate) was 63.8 nM. It also gave a TGI (DU-145 prostate) of 13.6 µM, a GI50 (SW-620 colon) of 249 nM and a TGI (SW-620 colon) of 12.5 µM. For the same compound, the GI50 (786-0 renal) was 0.263 µM, the TGI (786-0 renal) was 32.7 µM and the GI50 (UO-31 renal) was 13.4 nM. It also gave a TGI (UO-31 renal) of 322 nM, a GI50 (CCRF-CEM leukemia) of 45.2 nM and a TGI (CCRF-CEM leukemia) greater than 100 µM. It also gave a GI50 (UACC-257 melanoma) of 0.0685 µM, a TGI (UACC-257 melanoma) of 642 nM and a GI50 (OVCAR-8 ovarian) of 0.229 µM. The TGI (OVCAR-8 ovarian) was greater than 100 µM, the TGI (HOP-92 NSCLC) was 41.6 nM and the GI50 (BT-549 breast) was 0.0234 µM. It also gave a TGI (BT-549 breast) of 294 nM.
